Source: patent US20210323901A1, “METHOD OF STORING AND/OR TRANSPORTING OXO ALCOHOL” (SABIC GLOBAL TECHNOLOGIES B.V., priority 2018, published 2021)

Assays:
[1] = Solubility of antioxidants in 2-ethylhexanol; conditions: 25° C., amount varied from 100 ppm to 1,000 ppm
Procedure: The solubility of different antioxidants in oxo alcohol was analyzed. Alkanox™ 240, Lowinox™ CA22, and Anox™ 1315, were added to 2-ethylhexanol.

[2] = Color analysis of plasticizers made from 2-ethylhexanol with antioxidant (Platinum-Cobalt Scale, ASTM D1209); type: physicochemical
Procedure: The oxo alcohol 2-ethylhexanol was mixed with different antioxidants (Anox™ 1315 and Lowinox™ CA22). Plasticizers dioctyl phthalate (DOP) and/or trioctyl trimellitate (TOTM) were then synthesized using the different 2-ethylhexanol mixtures. The DOP plasticizer was produced using a 2-ethylhexanol to phthalic acid molar ratio of 2.35 to 1. The TOTM plasticizer was produced using a 2-ethylhexanol to […] molar ratio of 3.5 to 1. The plasticizers were synthesized a temperature of 210° C. for a period of 4 hours. Phosphorous-based antioxidants, nitrogen-based antioxidants, and sulfur-based antioxidants were all found to be problematic. For example, it was observed during downstream application that when phosphorus-based antioxidants were used, initially poor solubility in the oxo alcohol was a problem and then corrosion of the reactor. Not to be limited by theory, it is believed that during the production of the plasticizers, the phosphorus-based antioxidant would be hydrolyzed, producing phosphorus acid, which corroded the reactor. Nitrogen-based antioxidants and sulfur-based antioxidants, on the other hand, adversely affected the color of the resultant plasticizers.
Color analysis of the resulting plasticizers was conducted using the Platinum-Cobalt Scale in accordance with ASTM D1209, as updated in 2011. The best in class specification for TOTM plasticizer is a score of 30 and for the DOP plasticizer is a score of 25 on the Platinum-Cobalt scale. As is shown in Table 3, trioctyl trimellitate and dioctyl phthalate were produced using 2-ethylhexanol comprising the specified antioxidant.

[3] = Stability: aldehyde impurity levels in 2-ethylhexanol admixed with antioxidant, heated at 50° C., analysed by GC; type: physicochemical; conditions: 10 ppm in 2-ethylhexanol, heated conditions (50° C.)
Procedure: Experimental trials were conducted in accordance with the present method. The effects of antioxidants on aldehyde impurity levels in 2-ethlyhexanol were analyzed. A fixed volume of 2-ethylhexanol was admixed with an antioxidant and was heated at 50° C. for three weeks in a hot metal block. The 50° C. temperature mimicked harsh weather conditions during which accelerated autoxidation can occur. At the end of each week (intervals of 168 hours), a sample was drawn and analyzed using gas chromatography (GC). A control sample (where antioxidant was not added) was also analyzed. Lowinox™ CA22 was further examined at lower concentrations of 10 ppm and 20 ppm.

[4] = 2-ethylhexanol with 10 ppm antioxidant

CC(C)(C)c1ccc(OP(Oc2ccc(C(C)(C)C)cc2C(C)(C)C)Oc2ccc(C(C)(C)C)cc2C(C)(C)C)c(C(C)(C)C)c1 [Alkanox™ 240, phenol, 2,4-bis(1,1-dimetylethyl)-phosphite (3:1)]
Solubility in 2-ethylhexanol [1]: not soluble

Cc1cc(O)c(C(C)(C)C)cc1C(C)CC(c1cc(C(C)(C)C)c(O)cc1C)c1cc(C(C)(C)C)c(O)cc1C (stereo not drawn) [Lowinox™ CA22, 1,1,3-tris(2′-methyl-4′-hydroxy-5′-t-butylphenyl)butane]
Platinum-Cobalt score of resulting DOP [2, 4]: 20 | Platinum-Cobalt score of resulting TOTM [2, 4]: 28 | Platinum-Cobalt score of resulting TOTM ([2]; 2-ethylhexanol with 50 ppm antioxidant): 30 | Time for which aldehyde growth was stopped [3]: over 3 weeks | Solubility in 2-ethylhexanol [1]: soluble
